What was measured:
mTOR-raptor complex [1] = molecular target: T1, mTOR-raptor complex (Rattus norvegicus, UniProt P42346+Q8N122); assay: Coimmunoprecipitation of raptor with mTOR from 293T cells incubated with compound; format: cell-based; conditions: overexpressed in 293T cells, increasing concentrations, 1 h
T1 construct: rows headed: amount of HA-raptor that coimmunoprecipitated with AU1-mTOR; other: extracts incubated with increasing concentrations; amount of HA-raptor that coimmunoprecipitated with AU1-mTOR; other: overexpressed in 293T cells, increasing concentrati; half maximal effect on raptor dissociation from mTOR; other: AU1-mTOR and HA-raptor overexpressed in 293T cells, 1 h; association of AU1-mTOR and HA-rapto
T1 sequence (Q9BVC4 whole entry): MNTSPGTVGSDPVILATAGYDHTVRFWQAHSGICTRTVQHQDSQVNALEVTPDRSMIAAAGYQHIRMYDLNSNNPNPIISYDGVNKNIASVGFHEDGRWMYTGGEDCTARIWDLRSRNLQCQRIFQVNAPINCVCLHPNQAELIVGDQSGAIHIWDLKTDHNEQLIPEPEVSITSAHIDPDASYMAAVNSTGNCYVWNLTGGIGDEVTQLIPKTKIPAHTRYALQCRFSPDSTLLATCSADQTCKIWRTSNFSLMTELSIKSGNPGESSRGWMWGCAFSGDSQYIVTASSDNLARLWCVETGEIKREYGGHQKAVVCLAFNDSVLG
T1 sequence (Q8N122 whole entry): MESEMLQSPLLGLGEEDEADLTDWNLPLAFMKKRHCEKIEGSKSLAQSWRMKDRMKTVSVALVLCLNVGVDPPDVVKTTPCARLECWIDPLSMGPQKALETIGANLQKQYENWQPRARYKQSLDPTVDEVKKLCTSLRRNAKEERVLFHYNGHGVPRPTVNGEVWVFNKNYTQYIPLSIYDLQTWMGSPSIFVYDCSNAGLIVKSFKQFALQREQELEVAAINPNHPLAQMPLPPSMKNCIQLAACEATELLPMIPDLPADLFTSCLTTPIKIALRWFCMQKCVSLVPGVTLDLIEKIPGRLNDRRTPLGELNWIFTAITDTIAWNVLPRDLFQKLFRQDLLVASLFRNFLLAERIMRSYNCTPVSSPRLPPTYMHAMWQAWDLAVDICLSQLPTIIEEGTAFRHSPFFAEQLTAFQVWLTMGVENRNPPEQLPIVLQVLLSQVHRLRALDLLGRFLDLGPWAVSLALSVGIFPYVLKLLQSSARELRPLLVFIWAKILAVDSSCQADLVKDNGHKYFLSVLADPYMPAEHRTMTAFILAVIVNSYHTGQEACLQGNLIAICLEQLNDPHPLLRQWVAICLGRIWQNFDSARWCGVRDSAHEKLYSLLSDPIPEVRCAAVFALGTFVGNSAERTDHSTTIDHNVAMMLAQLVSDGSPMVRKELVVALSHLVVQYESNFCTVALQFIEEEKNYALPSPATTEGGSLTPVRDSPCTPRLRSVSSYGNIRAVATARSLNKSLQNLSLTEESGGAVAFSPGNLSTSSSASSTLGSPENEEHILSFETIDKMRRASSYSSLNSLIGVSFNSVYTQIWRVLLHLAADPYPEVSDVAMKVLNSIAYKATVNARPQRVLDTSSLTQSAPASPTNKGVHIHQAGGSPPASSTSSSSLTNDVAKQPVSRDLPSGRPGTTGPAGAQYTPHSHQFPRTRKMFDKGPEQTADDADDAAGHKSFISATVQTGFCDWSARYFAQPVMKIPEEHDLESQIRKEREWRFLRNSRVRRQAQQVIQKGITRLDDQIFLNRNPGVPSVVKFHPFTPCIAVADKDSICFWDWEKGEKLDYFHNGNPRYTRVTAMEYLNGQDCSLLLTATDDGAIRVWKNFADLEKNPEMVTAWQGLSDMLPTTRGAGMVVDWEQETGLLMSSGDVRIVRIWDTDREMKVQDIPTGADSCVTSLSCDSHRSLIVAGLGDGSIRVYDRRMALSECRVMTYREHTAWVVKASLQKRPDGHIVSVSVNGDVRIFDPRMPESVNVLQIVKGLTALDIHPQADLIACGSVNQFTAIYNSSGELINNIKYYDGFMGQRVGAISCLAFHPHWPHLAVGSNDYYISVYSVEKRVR
Description: (§1) FIG. 11A & 11B represent data showing FTS inhibits PHAS-I phosphorylation and promotes dissociation of the mTOR-raptor complex in 293T cells. 293T cells were transfected with pcDNA3AU1-mTOR, pcDNA33HARaptor, pcDNA33HA-mLST8, and pCMV-Tag3APHAS-I (FIG. 11A). After 18 h the cells were incubated for 1 h with increasing concentrations of FTS before extracts were prepared. A sample of each extract was subjected to SDS-PAGE and immunoblotted to detect PHAS-I or PThr^36/45. AU1-mTOR was also immunoprecipitated from each extract, and immune complexes were subjected to SDSPAGE and immunoblotted with mTAb2, to detect mTOR, and with anti-HA antibodies, to detect HA-mLST8 and HA-raptor. Nontransfected 293T cells were incubated with increasing concentrations of FTS for 1 h before extracts were prepared. mTOR was immunoprecipitated with mTAb1, and samples were subjected to SDS-PAGE.
(§2) FIGS. 12A & 12B represent data showing the effects of incubating cells with increasing concentrations of FTS and GTS on mTOR activity and mTOR association with raptor and mLST8. AU1-mTOR, HA-raptor, and HAmLST8 were overexpressed in 293T cells. The cells were then incubated for 1 h with increasing concentrations of FTS (●, ▴, ▪) or GTS (∘, Δ, □) before extracts were prepared. Immunoprecipitations were then conducted with anti-AU1 antibodies. mTOR kinase activity (●, ∘) was determined by measuring ^32P incorporation into [His^6]PHAS-I in immune complex kinases assays performed with [γ-^32P]ATP. The relative amounts of HA-raptor (▴, Δ) and HA-mLST8 (▪, □) that coimmunoprecipitated with AU1-mTOR were determined after immunoblotting with anti-HA antibodies. The results (mean values±S.E. from 3 experiments) are expressed as percentages of the mTOR activity (FIG. 12A) or coimmunoprecipitating proteins (FIG. 12B) from samples incubated without FTS or GTS, and have been corrected for the amounts of AU1-mTOR immunoprecipitated.
To investigate further the inhibitory effects of FTS on mTOR signaling, the effect of the drug on the association of mTOR, raptor, and mLST8 was determined. AU1-mTOR and HA-tagged forms of raptor and mLST8 were overexpressed in 293T cells, which were then incubated with increasing concentrations of FTS before AU1-mTOR was immunoprecipitated with anti-AU1 antibodies. Immunoblots were prepared with anti-HA antibodies to assess the relative amounts of HA-raptor and HA-mLST8 that coimmunoprecipitated with AU 1-mTOR (FIG. 11A).
Results obtained with overexpressed proteins are not necessarily representative of responses of endogenous proteins. Therefore, experiments were conducted to investigate the effect FTS on the endogenous TORC1 in nontransfected cells. […]

mTOR-raptor complex [2] = molecular target: T1, mTOR-raptor complex; assay: Coimmunoprecipitation of raptor with mTOR, compound added to cell extracts or immune complexes; format: binding; conditions: for amount of HA-raptor that coimmunoprecipitated with AU1-mTOR: extracts incubated with increasing concentrations
Description: 293T cells were transfected with pcDNA3 alone (Vec.) or with a combination of pcDNA3AU1-mTOR, pcDNA33HA-Raptor, and pcDNA33HA-mLST8. Extracts of the cells were incubated with increasing concentrations of FTS before AU1-mTOR was immunoprecipated. Samples of the immune complexes were incubated with [γ-^32P]ATP and recombinant [His^6]PHAS-I, then subjected to SDS-PAGE and transferred to an immobilon membrane. After obtaining a phosphorimage of the membrane to detect ^32P-PHAS-I, the membrane was immunoblotted with PThr^36/45 antibodies. Other samples of the immune complexes were subjected to SDS-PAGE and immunoblots were prepared with antibodies to the HA epitope or to mTOR (see FIG. 13A). Extracts of nontransfected 293T cells were incubated with increasing concentrations of FTS before mTOR was immunoprecipated with mTAb1. A control immunoprecipitation was conducted using nonimmune IgG (NI). Immune complexes were subjected to SDS-PAGE and immunoblots were prepared with antibodies to mLST8, mTOR, and raptor.
Samples of extracts from 293T cells overexpressing AU1-mTOR, HA-raptor, and HA-mLST8 were incubated for 1 h with increasing concentrations of FTS (●, ▴, ▪) or GTS (∘, Δ, □) before immunoprecipitations were conducted with anti-AU1 antibodies. mTOR kinase activity (●, ∘) was determined by measuring ^32P incorporation into [His^6]PHAS-I in immune complex kinases assays performed with [γ-^32P]ATP (see FIG. 14A). The relative amounts of HA-raptor (▴, Δ) and HA-mLST8 (▪, □) that coimmunoprecipitated with AU1-mTOR were determined after immunoblotting with anti-HA antibodies (see FIG. 14B). The results (mean values+S.E. from 5 experiments) are expressed as percentages of the mTOR activity (FIG. 14A) or coimmunoprecipitating proteins (FIG. 14B) from samples incubated without FTS or GTS, and have been corrected for the amounts of AU1-mTOR immunoprecipitated.
293T cells were transfected with pcDNA3 alone (Vec.) or with a combination of pcDNA3AU1-mTOR, pcDNA33HARaptor, and pcDNA33HA-mLST8. AU1-mTOR was immunoprecipitated and samples of the washed immune complexes were at incubated […] for 30 min with no inhibitors or with the following: caffeine (1 mM), FTS (50 μM), LY294002 (10 μM), rapamycin (1 μM) plus FKBP12 (10 μM), and 1 μM wortmannin. To prevent destruction of wortmannin, incubations were conducted in the absence of thiol reducing agents. Samples of the immune complexes were incubated for 10 min with 10 mM MnCl2, 1 mM [γ-^32P]ATP, and 50 μg/ml [His^6]PHAS-I to assess mTOR activity. Other samples were rinsed twice, subjected to SDS-PAGE, and immunoblotted with anti-HA and anti-AU1 antibodies to determine the amounts of HA-raptor and HA-mLST8 associated with AU1-mTOR. The relative amounts of ^32P incorporated into PHAS-I were determined by phosphorimaging (see FIG. 15B).

mTOR-mLST8 = assay: Coimmunoprecipitation of mLST8 with mTOR from 293T cells incubated with compound; format: cell-based; conditions: overexpressed in 293T cells, 1 h
Description: as §1, §2
To investigate further the inhibitory effects of FTS on mTOR signaling, the effect of the drug on the association of mTOR, raptor, and mLST8 was determined. […]

SMILES	amount of HA-raptor that coimmunoprecipitated with AU1-mTOR (mTOR-raptor complex [1])	association of AU1-mTOR and HA-raptor (mTOR-raptor complex [2]; FTS 50 μM, comparison with other mTOR inhibitors)	amount of HA-raptor that coimmunoprecipitated with AU1-mTOR (mTOR-raptor complex [2])	amount of HA-mLST8 associated with AU1-mTOR (mTOR-mLST8)
CC(C)=CCC/C(C)=C/CC/C(C)=C/CSc1ccccc1C(=O)O [FTS, farnesylthiosalicylic acid]	progressive decrease	decreased	decreased	did not appear to change
CC(C)=CCC/C(C)=C/CSc1ccccc1C(=O)O [GTS, S-geranylthiosalicylic acid, reference compound]	relatively little effect	–	progressive decreases	relatively little effect
